Literature values in US11618772B2 (Kineta Chronic Pain, LLC, priority 2014, dated 2023).

Molecular target: T1, α9α10 nAChR (Rattus norvegicus, UniProt P43144+Q9JLB5)
T1 construct: host or cells: oocytes
Conditions: cited from earlier work

T1 sequence (P43144 26-479 limits assumed): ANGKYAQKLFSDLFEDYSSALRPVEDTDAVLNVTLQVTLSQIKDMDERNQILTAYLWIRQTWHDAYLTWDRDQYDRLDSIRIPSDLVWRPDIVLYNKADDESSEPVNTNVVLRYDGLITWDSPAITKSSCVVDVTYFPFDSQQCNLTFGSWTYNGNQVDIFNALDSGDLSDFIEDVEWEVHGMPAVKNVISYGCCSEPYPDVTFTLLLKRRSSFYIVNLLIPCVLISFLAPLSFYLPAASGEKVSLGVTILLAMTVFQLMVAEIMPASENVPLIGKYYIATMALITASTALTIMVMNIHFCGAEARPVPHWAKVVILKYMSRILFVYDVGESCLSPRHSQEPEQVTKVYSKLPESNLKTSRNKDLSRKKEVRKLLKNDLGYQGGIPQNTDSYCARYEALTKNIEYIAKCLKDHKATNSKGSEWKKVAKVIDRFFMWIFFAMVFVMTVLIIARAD
T1 sequence (Q9JLB5 25-447 limits assumed): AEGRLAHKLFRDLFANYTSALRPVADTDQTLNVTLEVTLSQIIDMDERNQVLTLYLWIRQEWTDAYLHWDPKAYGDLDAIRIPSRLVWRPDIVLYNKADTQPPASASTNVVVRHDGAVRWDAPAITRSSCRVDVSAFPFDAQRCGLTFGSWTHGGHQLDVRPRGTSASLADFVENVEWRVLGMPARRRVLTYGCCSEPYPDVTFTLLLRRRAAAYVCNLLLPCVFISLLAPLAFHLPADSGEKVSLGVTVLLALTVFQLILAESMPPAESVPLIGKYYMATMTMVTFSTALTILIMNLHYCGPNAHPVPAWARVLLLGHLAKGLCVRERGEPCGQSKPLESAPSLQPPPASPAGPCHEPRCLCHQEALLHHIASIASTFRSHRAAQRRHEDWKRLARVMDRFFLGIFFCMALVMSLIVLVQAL

**Q.** For GCCSDPRCRYRCR [RgIA], which “block of α9α10 nAChR” value is on record?
**A.** Its value is “block α9α10 nAChR”.
